Test results as given in article PMC3119473 (PLoS ONE, 2011).
Entries after “also recorded” stand apart in the source; their conditions may differ. Square brackets hold non-standard residues; d marks the D form. Ends that are not written are not given here. fluorescein = fluorescein, N-terminal label; Lys(Me3) = C[N+](C)(C)CCCC[C@H](N)C(=O)O; Lys(Me2) = CN(C)CCCC[C@H](N)C(=O)O

Experiments:
[1] = target: T1, PWWP domain of human HDGF2 (residues 1–93) (Homo sapiens, UniProt Q7Z4V5); assay: Fluorescence polarization binding of histone peptides to HDGF2 PWWP domain; conditions: N-terminally fluorescein-labeled peptide 40 nM, PWWP domain titrated, 20 mM PIPES pH 6.5, 50 mM NaCl, 0.01% Tween-20, Very weak = binding too weak to be fitted reliably
T1 construct: HDGF2 (residues 1–93); His-tag (cleaved yes); made in house; host or cells: Escherichia coli BL21 (DE3)-V2R-pRARE2
Protocol: (§1) DNA fragment encoding the PWWP domain of human BRPF1 (residues 1085–1213), BRPF2 (residues 925–1049), BRPF3 (residues 1056–1195), HDGF2 (residues 1–93), DNMT3A (residues 278–427), DNMT3B (residues 206–355), MUM1 (residues 406–539) WHSC1 (residues 208–368) and WHSC1L1 (residues 247–402) were amplified by PCR and sub-cloned into pET28-MHL vector (Genbank accession number: EF456735) and transformed into Escherichia coli BL21 (DE3)-V2R-pRARE2. The cells were grown in Terrific Broth and the protein was over-expressed by addition of 1 mM isopropyl-1-thio-D-galactopyranoside (IPTG) and incubated overnight at 15°C. Harvested cells were resuspended in 50 mM HEPES, pH 7.4, supplemented with 500 mM NaCl, 2 mM β-mercaptoethanol, 5% glycerol, 0.1% CHAPS. The cells were lysed by passing through a microfluidizer (Microfluidics Corporation) at 20,000 psi. After clarification of the crude extract by high-speed centrifugation, the lysate was loaded onto a 5 ml HiTrap chelating column (GE Healthcare), charged with Ni^2+. The column was washed with 10 column volumes of 20 mM HEPES buffer, pH 7.4, containing 500 mM NaCl, 50 mM imidazole and 5% glycerol, the protein was eluted with 20 mM HEPES buffer, pH 7.4, 500 mM NaCl, 250 mM imidazole, 5% glycerol. The protein was dialyzed against buffer containing 20 mM HEPES, pH 7.4, 500 mM NaCl and 5% glyceral. TEV protease was added to combined fractions containing target proteins to remove the His-tag. All the proteins except DNMT3A were further purified to homogeneity by ion-exchange chromatography on Source 30S column (10×10) (GE Healthcare), equilibrated with 20 mM PIPES buffer, pH 6.5, and eluted with linear gradient of NaCl up to 500 mM concentration (20CV). For DNMT3A, Source 30Q column was used for ion exchange chromatography. The ^15N-labeled proteins for NMR titration were purified in the same protocols as native ones except that bacteria were grew in M9 minimal medium containing 1 g/L ^15(NH4)2SO4 as the sole nitrogen source. The labeled proteins were concentrated to 0.15–0.3 mM for NMR titration.
Fluorescence polarization assays were performed in 384-well plates, using the Synergy 2 microplate reader from BioTek as described in [43]. All the peptides were synthesized and purified by Tufts University Core Services (Boston, MA, U.S.A.), with the N-terminus labeled with fluorescein. Binding assays were performed in a 10 µl volume at a constant labeled peptide concentration (40 nM), by titrating the PWWP domains (at concentrations ranging from low to high micromolar) into 20 mM PIPES buffer (pH 6.5), containing 50 mM NaCl, 0.01% Tween-20. The data points were fitted to ligand binding function using Sigma Plot software to determine the K d values.

[2] = target: T2, PWWP domain of human BRPF1 (residues 1085–1213) (Homo sapiens, UniProt P55201); assay: Fluorescence polarization binding of histone peptides to BRPF1 PWWP domain; conditions: N-terminally fluorescein-labeled peptide 40 nM, PWWP domain titrated, 20 mM PIPES pH 6.5, 50 mM NaCl, 0.01% Tween-20, Very weak = binding too weak to be fitted reliably
T2 construct: PWWP domain of human BRPF1 (residues 1085–1213); His-tag (cleaved yes); made in house; host or cells: Escherichia coli BL21 (DE3)-V2R-pRARE2
T2 sequence (P55201 1085-1213): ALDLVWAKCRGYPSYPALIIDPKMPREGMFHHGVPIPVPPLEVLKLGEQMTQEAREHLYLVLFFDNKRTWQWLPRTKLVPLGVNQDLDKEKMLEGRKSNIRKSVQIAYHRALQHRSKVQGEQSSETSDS
Protocol: as §1, with “TEV protease was added to combined fractions containing target proteins to remove the His-tag. All the proteins except DNMT3A were further purified to homogeneity by ion-exchange chromatography on Source 30S column (10×10) (GE Healthcare), equilibrated with 20 mM PIPES buffer, pH 6.5, and eluted with linear gradient of NaCl up to 500 mM concentration (20CV). For DNMT3A, Source 30Q column was used for ion exchange chromatography. The ^15N-labeled proteins for NMR titration were purified in the same protocols as native ones except that bacteria were grew in M9 minimal medium containing 1 g/L ^15(NH4)2SO4 as the sole nitrogen source. The labeled proteins were concentrated to 0.15–0.3 mM for NMR titration.” left out

[3] = target: T3, PWWP domain of human BRPF2 (residues 925–1049) (Homo sapiens, UniProt O95696); assay: Fluorescence polarization binding of histone peptides to BRPF2 PWWP domain; conditions: N-terminally fluorescein-labeled peptide 40 nM, PWWP domain titrated, 20 mM PIPES pH 6.5, 50 mM NaCl, 0.01% Tween-20, Very weak = binding too weak to be fitted reliably
T3 construct: BRPF2 (residues 925–1049); His-tag (cleaved yes); made in house; host or cells: Escherichia coli BL21 (DE3)-V2R-pRARE2
T3 sequence (O95696 925-1049): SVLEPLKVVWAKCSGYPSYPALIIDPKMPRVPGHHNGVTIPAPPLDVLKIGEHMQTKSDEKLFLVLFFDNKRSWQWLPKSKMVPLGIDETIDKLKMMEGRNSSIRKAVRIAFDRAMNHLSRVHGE
Protocol: as §1, with “TEV protease was added to combined fractions containing target proteins to remove the His-tag. All the proteins except DNMT3A were further purified to homogeneity by ion-exchange chromatography on Source 30S column (10×10) (GE Healthcare), equilibrated with 20 mM PIPES buffer, pH 6.5, and eluted with linear gradient of NaCl up to 500 mM concentration (20CV). For DNMT3A, Source 30Q column was used for ion exchange chromatography. The ^15N-labeled proteins for NMR titration were purified in the same protocols as native ones except that bacteria were grew in M9 minimal medium containing 1 g/L ^15(NH4)2SO4 as the sole nitrogen source. The labeled proteins were concentrated to 0.15–0.3 mM for NMR titration.” left out

[4] = target: T4, N-terminal PWWP domain of human WHSC1L1 (residues 247–402) (Homo sapiens, UniProt Q9BZ95); assay: Fluorescence polarization binding of histone peptides to WHSC1L1 N-terminal PWWP domain; conditions: N-terminal PWWP domain only, N-terminally fluorescein-labeled peptide 40 nM, PWWP domain titrated, 20 mM PIPES pH 6.5, 50 mM NaCl, 0.01% Tween-20, Very weak = binding too weak to be fitted reliably
T4 construct: WHSC1L1 (residues 247–402); His-tag (cleaved yes); made in house; host or cells: Escherichia coli BL21 (DE3)-V2R-pRARE2
T4 sequence (Q9BZ95 247-402): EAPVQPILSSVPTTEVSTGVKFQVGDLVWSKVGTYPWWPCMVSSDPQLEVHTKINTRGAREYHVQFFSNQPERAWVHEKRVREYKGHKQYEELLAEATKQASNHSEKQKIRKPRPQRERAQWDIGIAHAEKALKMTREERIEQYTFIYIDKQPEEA
Protocol: DNA fragment encoding the PWWP domain of human BRPF1 (residues 1085–1213), BRPF2 (residues 925–1049), BRPF3 (residues 1056–1195), HDGF2 (residues 1–93), DNMT3A (residues 278–427), DNMT3B (residues 206–355), MUM1 (residues 406–539) WHSC1 (residues 208–368) and WHSC1L1 (residues 247–402) were amplified by PCR and sub-cloned into pET28-MHL vector (Genbank accession number: EF456735) and transformed into Escherichia coli BL21 (DE3)-V2R-pRARE2. The cells were grown in Terrific Broth and the protein was over-expressed by addition of 1 mM isopropyl-1-thio-D-galactopyranoside (IPTG) and incubated overnight at 15°C. Harvested cells were resuspended in 50 mM HEPES, pH 7.4, supplemented with 500 mM NaCl, 2 mM β-mercaptoethanol, 5% glycerol, 0.1% CHAPS. The cells were lysed by passing through a microfluidizer (Microfluidics Corporation) at 20,000 psi. After clarification of the crude extract by high-speed centrifugation, the lysate was loaded onto a 5 ml HiTrap chelating column (GE Healthcare), charged with Ni^2+. The column was washed with 10 column volumes of 20 mM HEPES buffer, pH 7.4, containing 500 mM NaCl, 50 mM imidazole and 5% glycerol, the protein was eluted with 20 mM HEPES buffer, pH 7.4, 500 mM NaCl, 250 mM imidazole, 5% glycerol. […]
Fluorescence polarization assays were performed in 384-well plates, using the Synergy 2 microplate reader from BioTek as described in [43]. […]

[5] = target: T5, PWWP domain of human MUM1 (melanoma associated antigen (mutated) 1), residues 406-539 (human, UniProt Q2TAK8 406-539); assay: fluorescence polarisation; 384-well plates, 10 µl; N-terminal fluorescein peptide constant at 40 nM, PWWP domain titrated (low to high micromolar); 20 mM PIPES pH 6.5, 50 mM NaCl, 0.01% Tween-20; conditions: both partners purified
T5 construct: PWWP domain of human MUM1, residues 406-539; Cloned into pET28-MHL (vector GenBank EF456735); source: E. coli BL21 (DE3)-V2R-pRARE2, purified (Ni2+ chelating column, TEV cleavage, Source 30S ion exchange)

[6] = target: T6, PWWP domain of human HDGF2 (Hepatoma-derived growth factor 2), residues 1-93 (human, UniProt Q7Z4V5 1-93); assay: as above; conditions: both partners purified
T6 construct: PWWP domain of human HDGF2, residues 1-93; Cloned into pET28-MHL (vector GenBank EF456735); also called HGDF2; source: E. coli BL21 (DE3)-V2R-pRARE2, purified (Ni2+ chelating column, TEV cleavage, Source 30S ion exchange)
T6 sequence (Q7Z4V5 1-93): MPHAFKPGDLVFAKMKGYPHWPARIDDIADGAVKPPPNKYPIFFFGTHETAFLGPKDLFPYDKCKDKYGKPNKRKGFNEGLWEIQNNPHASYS

T1 sequence (Q7Z4V5 1-93): as above
T5 sequence (Q2TAK8 406-539, stated change not applied): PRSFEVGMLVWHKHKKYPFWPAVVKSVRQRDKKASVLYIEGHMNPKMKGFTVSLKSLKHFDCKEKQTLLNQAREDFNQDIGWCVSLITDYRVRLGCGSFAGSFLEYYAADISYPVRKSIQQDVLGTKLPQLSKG

CC[C@H](C)[C@H](NC(=O)[C@@H](N)CCC(=O)O)C(=O)N[C@@H](C)C(=O)N[C@@H](CCC(N)=O)C(=O)N[C@@H](CC(=O)O)C(=O)N[C@@H](Cc1ccccc1)C(=O)N[C@@H](CCCCN(C)C)C(=O)N[C@H](C(=O)N[C@@H](CC(=O)O)C(=O)N[C@@H](CC(C)C)C(=O)N[C@@H](CCCNC(=N)N)C(=O)N[C@@H](Cc1ccc(O)cc1)C(=O)O)[C@@H](C)O [Peptide H3K79me2]
HDGF2 Kd(mM) [1]: Very weak

AKRHRK(me)2VLRDN [Peptide H4K20me2, histone H4 peptide dimethylated at K20; N-terminus fluorescein-labeled in FP assay]
BRPF1 Kd(mM) [2]: Very weak | HDGF2 Kd(mM) [1]: Very weak

CC(C)[C@H](NC(=O)CNC(=O)CNC(=O)[C@@H](NC(=O)[C@H](C)NC(=O)[C@@H]1CCCN1)[C@@H](C)O)C(=O)N[C@@H](CCCCN(C)C)C(=O)N[C@@H](CCCCN)C(=O)N1CCC[C@H]1C(=O)N[C@@H](Cc1c[nH]cn1)C(=O)N[C@@H](CCCNC(=N)N)C(=O)N[C@@H](Cc1ccc(O)cc1)C(=O)O [Peptide H3K36me2]
BRPF2 Kd(mM) [3]: Very weak | WHSC1L1_N Kd (mM) [4]: Very weak

CC(C)[C@H](NC(=O)CNC(=O)CNC(=O)[C@@H](NC(=O)[C@H](C)NC(=O)[C@@H]1CCCN1)[C@@H](C)O)C(=O)N[C@@H](CCCC[N+](C)(C)C)C(=O)N[C@@H](CCCCN)C(=O)N1CCC[C@H]1C(=O)N[C@@H](Cc1c[nH]cn1)C(=O)N[C@@H](CCCNC(=N)N)C(=O)N[C@@H](Cc1ccc(O)cc1)C(=O)O [Peptide H3K36me3]
WHSC1L1_N Kd (mM) [4]: Very weak | HDGF2 Kd(mM) [1]: weakly; also recorded: Very weak

AKRHRK(me)3VLRDN [Peptide H4K20me3, histone H4 peptide trimethylated at K20; N-terminus fluorescein-labeled in FP assay]
BRPF1 Kd(mM) [2]: Very weak | HDGF2 Kd(mM) [1]: weakly; also recorded: Very weak

CC[C@H](C)[C@H](NC(=O)[C@@H](N)CCC(=O)O)C(=O)N[C@@H](C)C(=O)N[C@@H](CCC(N)=O)C(=O)N[C@@H](CC(=O)O)C(=O)N[C@@H](Cc1ccccc1)C(=O)N[C@@H](CCCC[N+](C)(C)C)C(=O)N[C@H](C(=O)N[C@@H](CC(=O)O)C(=O)N[C@@H](CC(C)C)C(=O)N[C@@H](CCCNC(=N)N)C(=O)N[C@@H](Cc1ccc(O)cc1)C(=O)O)[C@@H](C)O [Peptide H3K79me3]
HDGF2 Kd(mM) [1]: weakly; also recorded: very weak binding affinity

B1: H3K36me3 peptide PATGGVK(me)3KPHRY, N-terminal fluorescein (peptide)
peptide: fluorescein-PATGGV[Lys(Me3)]KPHRY
notes: histone H3, stretch around K36; source: synthetic peptide (Tufts University Core Services)
Kd [5]: 100 ± 70 µM

B2: H3K36me2 peptide PATGGVK(me)2KPHRY, N-terminal fluorescein (peptide)
peptide: fluorescein-PATGGV[Lys(Me2)]KPHRY
notes: as for B1
Kd [6]: 1000 ± 200 µM | Kd [5]: 400 ± 100 µM
